{"source": "patent EP3818828A1", "about": "(priority 2019, dated 2021)", "key": {"Fusarium graminearum": {"system": "Fusarium graminearum", "test": "microbe, parasite or virus in culture", "format": "cell-based", "details": "for EC50: median inhibition concentration"}, "F. graminearum": {"system": "F. graminearum", "test": "microbe, parasite or virus in culture", "format": "cell-based", "details": "for EC50: median inhibition concentration"}, "Phytophthora infestans": {"system": "Phytophthora infestans", "test": "microbe, parasite or virus in culture", "format": "cell-based", "details": "for EC50: median inhibition concentration"}, "[1]": {"system": "damping-off (P. aphanidermatum, P.capsici)", "test": "In-vivo greenhouse control of damping-off of tomatoes", "details": "Tomato; sick soil; 0.80 mg/mL (active ingredients)", "method": "(§1) 3.88 g of 3-(3',4'-methylenedioxy phenyl)-N-n-propyl acrylamide was weighed and dissolved in 25 g of absolute ethyl alcohol, then 6 g of emulsifier 0203B was added, and mixed uniformly with stirring to get 10% of 3-(3',4'-methylenedioxy phenyl)-N-n-propyl acrylamide EC.\n(§2) 5.61 g of 3-(3',4'-methylenedioxy phenyl)-piperidine acrylate was weighed and dissolved in 25 g of absolute ethyl alcohol, then 6 g of emulsifier 0203B was added, and mixed uniformly with stirring to get 14% of 3-(3',4'-methylenedioxy phenyl)-piperidine acrylate EC.\n(§3) Sick soil of damping-off (P. aphanidermatum, P.capsici) was collected from the fields of tomatoes, eggplants and peppers in a solar greenhouse, and mixed evenly in equal proportion. Tomatoes (Variety: Song Tian Fen Yang Yang, 100 grains), eggplants (Variety: Lanza No. 2 F1 long eggplant, 100 grains), pepper (Longjiao No. 2 F1, 100 grains) were seeded quantitatively with the sick soil in pots (diameter: 15 cm) in a greenhouse, additionally with sterile vermiculite as the control (each 100 grains for determining the germination rate). […] Mortality of seedlings was investigated after the seedlings had grown 2 true leaves, and the control effect of each treatment on damping-off was calculated. […]"}, "[2]": {"system": "damping-off (P. aphanidermatum, P.capsici)", "test": "In-vivo greenhouse control of damping-off of eggplants", "details": "Eggplant; sick soil; 0.80 mg/mL (active ingredients)", "method": "as §1, §2, §3"}, "cucumber powdery mildew": {"system": "cucumber powdery mildew", "test": "In-vivo greenhouse determination of systemic action (root-irrigation) on cucumber powdery mildew", "method": "as §2\nCucumber (Variety: Tianjin Mici) was sown in big pots (with a diameter of 30 cm) in a greenhouse, remaining 3 plants for each pot after emergence. The first root-irrigation was started at the early onset of cucumber powdery mildew (first appearance of spots on the true leaves). 14% of 3-(3',4'-methylenedioxy phenyl)-piperidine acrylate EC was diluted at three concentrations of 1.00, 0.667 and 0.50 mg/mL (active ingredients), 500 mL liquor for each pot. The root-irrigations were conducted every 7 days consecutively for 3 times. 10 days after the third root-irrigation, the number of sick leaves at each grade of cucumber powdery mildew was investigated for the whole plant following the grading standard of 9 grades, to calculate the disease index and the control effect."}, "[3]": {"details": "EC50 of chlorothalonil / EC50 of agent"}, "[4]": {"details": "EC50 of procymidone / EC50 of agent"}}}
{"molecule": "O=C(/C=C/c1ccc2c(c1)OCO2)N1CCCCC1", "note": "[3-(3',4'-methylenedioxyphenyl)-piperidine acrylate]", "values": [{"measurement": "Relative Toxicity (Compared to Chlorothalonil)", "setting": "Fusarium graminearum; [3]", "value": 5.89}, {"measurement": "Relative Toxicity (Compared to Procymidone)", "setting": "Fusarium graminearum; [4]", "value": 1.80}, {"measurement": "EC50", "setting": "Fusarium graminearum", "value": 80, "unit": "µg/mL"}, {"measurement": "EC50", "setting": "Fusarium graminearum; listed as 66#", "value": 79.6, "unit": "µg/mL"}, {"measurement": "Relative Toxicity (Compared to Chlorothalonil)", "setting": "F. graminearum; [3]", "value": 1.82}, {"measurement": "Relative Toxicity (Compared to Procymidone)", "setting": "F. graminearum; [4]", "value": 6.83}, {"measurement": "EC50", "setting": "F. graminearum; Fusarium graminearum", "value": 120, "unit": "µg/mL"}, {"measurement": "EC50", "setting": "F. graminearum; listed as 66#", "value": 124.5, "unit": "µg/mL"}, {"measurement": "Relative Toxicity (Compared to Chlorothalonil)", "setting": "Phytophthora infestans; [3]", "value": 1.23}, {"measurement": "Relative Toxicity (Compared to Procymidone)", "setting": "Phytophthora infestans; [4]", "value": 8.36}, {"measurement": "EC50", "setting": "Phytophthora infestans", "value": 90, "unit": "µg/mL"}, {"measurement": "EC50", "setting": "Phytophthora infestans; listed as 66#", "value": 93, "unit": "µg/mL"}, {"measurement": "Control Effect", "setting": "[1]", "value": 61.41, "unit": "%"}, {"measurement": "Control Effect", "setting": "[2]", "value": 63.47, "unit": "%"}, {"measurement": "systemic activity", "setting": "cucumber powdery mildew; cucumber powdery mildew, uptake by roots and delivery upwards", "value": "no systemic activity"}, {"measurement": "effects of root-irrigations on cucumber powdery mildew", "setting": "cucumber powdery mildew; root-irrigations at 1.00, 0.667 and 0.50 mg/mL at the early onset", "value": "no effects"}]}
